From patent publication US7674816B2, “Substituted melatonin derivatives, process for their preparation, and methods of use” (Abraxis BioScience, LLC, priority 2003, dated 2010)
Read-outs that look alike come from different tables or passages of the source.

Key:
Dawley rats = test: Response to tail clamping after single i.v. bolus; assay type: in vivo; conditions: single i.v. bolus 15 mg/kg, in 10% ethanol/16% Cremophor
Protocol: This example illustrates the tail clamping with melatonin analogs. Dawley rats (Harlan, Indianapolis, Ind., USA) were weighed and anaesthetized with isoflurane. In all rats, the right jugular vein was cannulated with a heparinized saline filled catheter. Studies were carried out 5-7 days after surgery.
Tail clamp was tested by application of a rubber-clad vascular clamp (22 cm DeBakey) across the proximal third of the tail. Purposeful movement of the hind limbs and/or the head was noted as a positive response.

rats [1] = test: In vivo hypnotic activity: time to recovery of righting reflex after tail vein injection; conditions: 28 μmol/kg (5 mg/kg for propofol), in DMSO
Protocol: (§1) The suspension was centrifuged at 1000×g for 10 minutes at 4° C. The pellet was washed twice in assay buffer and reacted with radioactive ligand in presence or absence of […] at 10^−4 M final concentration. The amount of radioactivity remained on the Whatman filter following filtration of the reaction mix and two washes with assay buffer was determined using a liquid scintillation counter. Inhibition of radioactive ligand binding by melatonin represents the competitive binding of melatonin to the same site as the radioactive ligand. GABAA Cl channel were assayed using ^3H-TBOB. The binding was carried out in the presence of increasing concentration of melatonin and the KD determined graphically using the Hill plots. In vivo hypnotic activity was determined as follow. Drugs solubilized in DMSO were administered to rats by tail vein injection (N=5 rats per group). A dose level of 28 μmol/kg (5 mg/kg for propofol) was used to compensate for differences in molecular weight of the analogs. Anesthetic activity in vivo was determined as time to recovery of righting reflex following administration of the compounds.

GABAA Cl channel [2] = test: GABAA Cl channel binding constant determination (3H-TBOB, increasing concentration, Hill plots); conditions: bovine hippocampus
Protocol: as §1

rats [3] = conditions: cited from earlier work; for ED95 (95% CI, for loss of righting reflex): intravenous
GABAA agonist site = GABAA agonist site competitive binding (3H-GABA); conditions: bovine hippocampus
Source text: (§2) The binding profile of exemplary inventive compounds to neurotransmitter receptor sites is set forth below in Table 1. The characterization of the receptors, isolation of the membrane, and enzyme assay have been described in detail previously (see, e.g., Cole et al., Life Sci., 35, 1755 (1984), Lawrence et al., J. Neurochem., 45(3), 798 (1985), Sweetnam et al., Mol. Pharmacology, 29, 299 (1986), Zarkovsky et al., Neuropharmacology, 26 (7A), 737 (1987), Li et al., Eur. J. Pharmacology, 413, 63 (2001), and Markela et al., Mol. Pharmacology, 52, 380 (1997)).
(§3) The melatonin binding site on GABAA was defined using a series of competitive binding assays. Frozen bovine hippocampus was thawed and homogenized in 40 volumes of ice-cold 0.32 M sucrose. The suspension was centrifuged at 1000×g for 10 minutes at 4° C. The pellet was washed twice in assay buffer and reacted with radioactive ligand in presence or absence of melatonin at 10^−4 M final concentration. The amount of radioactivity remained on the Whatman filter following filtration of the reaction mix and two washes with assay buffer was determined using a liquid scintillation counter. Inhibition of radioactive ligand binding by melatonin represents the competitive binding of melatonin to the same site as the radioactive ligand. GABAA agonist site, GABAA α-1 site, GABAA α-5 site, GABAA α-6 site, and GABAA Cl channel were assayed using ^3H-GABA, ^3H-flunitrazepam, ^3H-RY80, ^3H-Ro 15-4513, and ^3H-TBOB.

GABAA α-1 site [4] = test: GABAA alpha 1 site competitive binding (3H-flunitrazepam); conditions: Conc. 1.0E−4 M, bovine hippocampus
Source text: as §2, §3

GABAA Cl channel [5] = test: GABAA Cl channel, TBOB site competitive binding (3H-TBOB), single concentration; conditions: Conc. 1.0E−4 M, bovine hippocampus
Source text: as §2, §3

GABAA α-6 site [6] = test: GABAA alpha 6 site competitive binding (3H-Ro 15-4513); conditions: Conc. 1.0E−4 M, bovine hippocampus
Source text: as §2, §3

GABAA α-6 site [7] = test: as above; conditions: Conc. 1.0E−3 M, bovine hippocampus
GABAA α-1 site [8] = test: GABAA alpha 1 site competitive binding (3H-flunitrazepam); conditions: Conc. 1.0E−3 M, bovine hippocampus
GABAA Cl channel [9] = test: GABAA Cl channel, TBOB site competitive binding (3H-TBOB), single concentration; conditions: Conc. 1.0E−3 M, bovine hippocampus

COc1ccc2[nH]c(-c3ccc(F)cc3)c(CCNC(C)=O)c2c1 [drawing 26]
# lack of response rat/tested rat (Dawley rats): 5/5 | Time of lack of response to the tail clamp (Dawley rats): 2 min

CC(C)c1cccc(C(C)C)c1O [drawing 16, reference compound]
Anesthesia Activity (Time to awakening, min) (rats [1]): 20.8 min | IC50 (GABAA Cl channel [2]): 4.86 µM

COc1ccc2[nH]c(-c3cccc(C(F)(F)F)c3)c(CCNC(C)=O)c2c1 [drawing 22]
Anesthesia Activity (Time to awakening, min) (rats [1]): 3.8 min

COc1ccc2[nH]c(-c3ccccc3)c(CCNC(C)=O)c2c1 [drawing 18]
IC50 (GABAA Cl channel [2]): 108 µM

COc1ccc2[nH]c(-c3ccc(C(C)(C)C)cc3)c(CCNC(C)=O)c2c1 [drawing 29]
# lack of response rat/tested rat (Dawley rats): 5/5 | Time of lack of response to the tail clamp (Dawley rats): 5 min

CCCC(C)C1(CC)C(=O)NC(=S)NC1=O (centres unmarked) [thiopental]
ED95 (95% CI, for loss of righting reflex) (rats [3]): 8 mg/kg

COc1ccc(-c2[nH]c3ccc(OC)cc3c2CCNC(C)=O)cc1 [drawing 23]
Anesthesia Activity (Time to awakening, min) (rats [1]): 3.5 min | IC50 (GABAA Cl channel [2]): 19.9 µM

COc1ccc2[nH]c(-c3ccccc3)c(CCNC(C)=O)c2c1 [2-Phenylmelatonin, N-(2-(5-methoxy-2-phenyl-1H-indol-3-yl)ethyl)acetamide]
Specific binding, GABAA Agonist site (inhibition of radioactive ligand binding) (GABAA agonist site; Conc. 1.0E−4 M): 0.33% | Specific binding, GABAA Alpha 1 site (inhibition of radioactive ligand binding) (GABAA α-1 site [4]): 35.16% | Specific binding, GABAA Ion Channels Cl−, TBOB site (inhibition of radioactive ligand binding) (GABAA Cl channel [5]): 84.28% | Specific binding, GABAA Alpha 6 site (inhibition of radioactive ligand binding) (GABAA α-6 site [6]): 12.48%

COc1ccc2[nH]c(-c3ccc(C)cc3)c(CCNC(C)=O)c2c1 [2-(4-Methylphenyl) melatonin, N-(2-(5-methoxy-2-p-tolyl-1H-indol-3-yl)ethyl)acetamide]
Specific binding, GABAA Alpha 1 site (inhibition of radioactive ligand binding) (GABAA α-1 site [4]): 10.28% | Specific binding, GABAA Ion Channels Cl−, TBOB site (inhibition of radioactive ligand binding) (GABAA Cl channel [5]): 101.46% | Specific binding, GABAA Alpha 6 site (inhibition of radioactive ligand binding) (GABAA α-6 site [6]): 32.93%

COc1ccc2[nH]cc(CCNC(C)=O)c2c1 [Melatonin, N-acetyl-5-methoxytryptamine]
Specific binding, GABAA Agonist site (inhibition of radioactive ligand binding) (GABAA agonist site; Conc. 1.0E−3 M): −3.11% | Specific binding, GABAA Alpha 6 site (inhibition of radioactive ligand binding) (GABAA α-6 site [7]): 17.50% | Effect of bolus injection on righting reflex (rats [3]; bolus injection of 312 mg/mL): immediate loss of righting reflex | Specific binding, GABAA Alpha 1 site (inhibition of radioactive ligand binding) (GABAA α-1 site [8]): 39.80% | Specific binding, GABAA Ion Channels Cl−, TBOB site (inhibition of radioactive ligand binding) (GABAA Cl channel [9]): 39.44%

COc1ccc2[nH]c(-c3ccc(C)cc3)c(CCNC(C)=O)c2c1 [drawing 21]
Anesthesia Activity (Time to awakening, min) (rats [1]): 4.8 min | IC50 (GABAA Cl channel [2]): 33.9 µM

CC(=O)NCCc1c(Cc2ccccc2)[nH]c2ccccc12 [Luzindole, reference compound]
Specific binding, GABAA Agonist site (inhibition of radioactive ligand binding) (GABAA agonist site; Conc. 1.0E−4 M): 5.84% | Specific binding, GABAA Alpha 1 site (inhibition of radioactive ligand binding) (GABAA α-1 site [4]): 5.09% | Specific binding, GABAA Ion Channels Cl−, TBOB site (inhibition of radioactive ligand binding) (GABAA Cl channel [5]): 47.55% | Specific binding, GABAA Alpha 6 site (inhibition of radioactive ligand binding) (GABAA α-6 site [6]): 4.93%

CC(C)c1cccc(C(C)C)c1O [2,6-Diisopropylphenol, reference compound]
Specific binding, GABAA Agonist site (inhibition of radioactive ligand binding) (GABAA agonist site; Conc. 1.0E−4 M): 12.48% | Specific binding, GABAA Alpha 1 site (inhibition of radioactive ligand binding) (GABAA α-1 site [4]): −14.31% | Effect of bolus injection on righting reflex (rats [3]; bolus injection of 10 mg/kg): immediate loss of righting reflex | ED95 (95% CI, for loss of righting reflex) (rats [3]): 14.9 mg/kg | Specific binding, GABAA Ion Channels Cl−, TBOB site (inhibition of radioactive ligand binding) (GABAA Cl channel [5]): 117.52% | Specific binding, GABAA Alpha 6 site (inhibition of radioactive ligand binding) (GABAA α-6 site [6]): −0.89%

COc1ccc2[nH]c(-c3ccc(F)cc3)c(CCNC(C)=O)c2c1 [drawing 19]
Anesthesia Activity (Time to awakening, min) (rats [1]): 3.0 min | IC50 (GABAA Cl channel [2]): 27.9 µM

COc1ccc2[nH]c(-c3ccccc3)c(CCNC(C)=O)c2c1 [drawing 25, reference compound]
# lack of response rat/tested rat (Dawley rats): 0/5 | Time of lack of response to the tail clamp, min (Dawley rats): No effect

COc1ccc2[nH]c(-c3ccc(C(F)(F)F)cc3)c(CCNC(C)=O)c2c1 [drawing 20]
Anesthesia Activity (Time to awakening, min) (rats [1]): 20.8 min | IC50 (GABAA Cl channel [2]): 13.1 µM

COc1ccc2[nH]c(-c3ccc(F)cc3)c(CCNC(C)=O)c2c1 [2-(4-Fluorophenyl) melatonin, N-(2-(2-(4-fluorophenyl)-5-methoxy-1H-indol-3-yl)ethyl)acetamide]
Specific binding, GABAA Alpha 1 site (inhibition of radioactive ligand binding) (GABAA α-1 site [4]): 28.80% | Specific binding, GABAA Ion Channels Cl−, TBOB site (inhibition of radioactive ligand binding) (GABAA Cl channel [5]): 110.10% | Specific binding, GABAA Alpha 6 site (inhibition of radioactive ligand binding) (GABAA α-6 site [6]): 20.76%

COc1ccc2[nH]c(-c3cccc(C(F)(F)F)c3)c(CCNC(C)=O)c2c1 [drawing 28]
# lack of response rat/tested rat (Dawley rats): 5/5 | Time of lack of response to the tail clamp (Dawley rats): 5 min

COc1ccc2[nH]c(Br)c(CCNC(C)=O)c2c1 [2-Bromomelatonin, N-(2-(2-bromo-5-methoxy-1H-indol-3-yl)ethyl)acetamide]
Specific binding, GABAA Agonist site (inhibition of radioactive ligand binding) (GABAA agonist site; Conc. 1.0E−3 M): −8.55% | Specific binding, GABAA Alpha 6 site (inhibition of radioactive ligand binding) (GABAA α-6 site [7]): −12.69% | Specific binding, GABAA Alpha 1 site (inhibition of radioactive ligand binding) (GABAA α-1 site [8]): 8.35% | Specific binding, GABAA Ion Channels Cl−, TBOB site (inhibition of radioactive ligand binding) (GABAA Cl channel [9]): 51.87%

COc1ccc2[nH]c(-c3ccc(C(C)(C)C)cc3)c(CCNC(C)=O)c2c1 [drawing 24]
Anesthesia Activity (Time to awakening, min) (rats [1]): 20.3 min

COc1ccc2[nH]c(-c3ccc(C(F)(F)F)cc3)c(CCNC(C)=O)c2c1 [2-(4-Trifluoromethylphenyl) melatonin, N-(2-(2-(4-trifluoromethylphenyl)-5-methoxy-1H-indol-3-yl)ethyl)acetamide]
Specific binding, GABAA Alpha 1 site (inhibition of radioactive ligand binding) (GABAA α-1 site [4]): 8.11% | Specific binding, GABAA Ion Channels Cl−, TBOB site (inhibition of radioactive ligand binding) (GABAA Cl channel [5]): 103.23% | Specific binding, GABAA Alpha 6 site (inhibition of radioactive ligand binding) (GABAA α-6 site [6]): 25.87%

COc1ccc2[nH]c(-c3cccc(C(F)(F)F)c3)c(CCNC(C)=O)c2c1 [2-(3-Trifluoromethylphenyl) melatonin, N-(2-(2-(3-trifluoromethylphenyl)-5-methoxy-1H-indol-3-yl)ethyl)acetamide]
Specific binding, GABAA Alpha 1 site (inhibition of radioactive ligand binding) (GABAA α-1 site [4]): 15.61% | Specific binding, GABAA Ion Channels Cl−, TBOB site (inhibition of radioactive ligand binding) (GABAA Cl channel [5]): 79.60% | Specific binding, GABAA Alpha 6 site (inhibition of radioactive ligand binding) (GABAA α-6 site [6]): 25.39%

COc1ccc2[nH]c(-c3ccc(C(F)(F)F)cc3)c(CCNC(C)=O)c2c1 [drawing 27]
# lack of response rat/tested rat (Dawley rats): 4/5 | Time of lack of response to the tail clamp (Dawley rats): 15 min
